US12685735B2 (Foghorn Therapeutics Inc., priority 2020, dated 2026)
Like-named read-outs stand apart in the source and are kept apart here.

Assays:
[1] = molecular target: BRG-1 (Homo sapiens, UniProt P51532); experiment: ATPase catalytic activity assay of BRG-1 (ADP-Glo); assay type: biochemical; settings: ATPase catalytic activity, ADP-Glo; for IC50: read-out: BRG1 IC50 (μM)*; for Emax: read-out: BRG1 Max % Inhibition
Outline: (§1)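 ADP formed by the ATPase reaction was quantified by ADP-Glo luminescence. After the reaction, unconsumed ATP was depleted (40 min, room temperature), then ADP was converted to ATP for luciferase detection (60 min, room temperature) before reading on a luminometer.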

[2] = molecular target: BRM (Homo sapiens, UniProt P51531); experiment: ATPase catalytic activity assay of BRM (ADP-Glo); assay type: biochemical; settings: for IC50: read-out: BRM IC50 (μM)*
Chain of BRM (P51531 whole entry): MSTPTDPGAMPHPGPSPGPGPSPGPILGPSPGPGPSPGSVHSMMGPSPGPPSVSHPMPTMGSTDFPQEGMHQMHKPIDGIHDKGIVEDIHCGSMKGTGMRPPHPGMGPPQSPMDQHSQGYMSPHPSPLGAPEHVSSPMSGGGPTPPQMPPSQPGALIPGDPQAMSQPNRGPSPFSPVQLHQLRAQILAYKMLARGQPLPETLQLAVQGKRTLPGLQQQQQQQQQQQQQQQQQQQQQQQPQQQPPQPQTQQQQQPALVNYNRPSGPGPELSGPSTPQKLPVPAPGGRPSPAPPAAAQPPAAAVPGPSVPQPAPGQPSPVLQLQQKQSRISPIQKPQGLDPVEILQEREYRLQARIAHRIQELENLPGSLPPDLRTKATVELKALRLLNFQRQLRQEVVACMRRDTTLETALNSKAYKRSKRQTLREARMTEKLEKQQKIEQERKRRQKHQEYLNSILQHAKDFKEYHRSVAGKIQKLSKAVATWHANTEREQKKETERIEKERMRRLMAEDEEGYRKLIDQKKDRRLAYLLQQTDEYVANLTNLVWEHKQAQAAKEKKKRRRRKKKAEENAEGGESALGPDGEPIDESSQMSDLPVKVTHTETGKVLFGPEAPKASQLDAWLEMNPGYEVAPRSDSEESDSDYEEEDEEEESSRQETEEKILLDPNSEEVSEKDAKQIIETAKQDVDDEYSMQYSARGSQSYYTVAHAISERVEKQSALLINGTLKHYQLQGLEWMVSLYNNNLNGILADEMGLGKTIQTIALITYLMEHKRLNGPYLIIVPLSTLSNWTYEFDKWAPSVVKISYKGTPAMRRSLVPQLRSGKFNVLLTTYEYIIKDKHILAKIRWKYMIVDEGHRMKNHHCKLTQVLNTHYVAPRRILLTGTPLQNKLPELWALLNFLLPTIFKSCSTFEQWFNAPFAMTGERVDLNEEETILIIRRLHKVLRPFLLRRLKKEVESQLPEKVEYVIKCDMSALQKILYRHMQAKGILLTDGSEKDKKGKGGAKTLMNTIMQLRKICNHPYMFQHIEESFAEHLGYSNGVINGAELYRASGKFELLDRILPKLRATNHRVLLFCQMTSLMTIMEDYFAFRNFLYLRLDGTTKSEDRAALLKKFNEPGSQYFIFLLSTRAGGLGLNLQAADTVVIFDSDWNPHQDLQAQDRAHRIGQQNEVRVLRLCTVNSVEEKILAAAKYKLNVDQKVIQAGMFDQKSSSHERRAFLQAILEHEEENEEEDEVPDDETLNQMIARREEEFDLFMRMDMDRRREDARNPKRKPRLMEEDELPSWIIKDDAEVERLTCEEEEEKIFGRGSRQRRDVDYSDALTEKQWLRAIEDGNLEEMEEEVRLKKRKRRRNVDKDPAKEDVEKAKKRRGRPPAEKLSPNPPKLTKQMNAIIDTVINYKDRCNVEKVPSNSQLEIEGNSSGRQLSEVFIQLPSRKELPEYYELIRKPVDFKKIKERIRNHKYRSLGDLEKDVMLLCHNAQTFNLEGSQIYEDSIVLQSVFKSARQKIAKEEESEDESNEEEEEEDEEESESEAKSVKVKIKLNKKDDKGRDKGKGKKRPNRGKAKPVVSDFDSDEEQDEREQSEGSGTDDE
Outline: as §1

Chain of BRG-1 (P51532 whole entry): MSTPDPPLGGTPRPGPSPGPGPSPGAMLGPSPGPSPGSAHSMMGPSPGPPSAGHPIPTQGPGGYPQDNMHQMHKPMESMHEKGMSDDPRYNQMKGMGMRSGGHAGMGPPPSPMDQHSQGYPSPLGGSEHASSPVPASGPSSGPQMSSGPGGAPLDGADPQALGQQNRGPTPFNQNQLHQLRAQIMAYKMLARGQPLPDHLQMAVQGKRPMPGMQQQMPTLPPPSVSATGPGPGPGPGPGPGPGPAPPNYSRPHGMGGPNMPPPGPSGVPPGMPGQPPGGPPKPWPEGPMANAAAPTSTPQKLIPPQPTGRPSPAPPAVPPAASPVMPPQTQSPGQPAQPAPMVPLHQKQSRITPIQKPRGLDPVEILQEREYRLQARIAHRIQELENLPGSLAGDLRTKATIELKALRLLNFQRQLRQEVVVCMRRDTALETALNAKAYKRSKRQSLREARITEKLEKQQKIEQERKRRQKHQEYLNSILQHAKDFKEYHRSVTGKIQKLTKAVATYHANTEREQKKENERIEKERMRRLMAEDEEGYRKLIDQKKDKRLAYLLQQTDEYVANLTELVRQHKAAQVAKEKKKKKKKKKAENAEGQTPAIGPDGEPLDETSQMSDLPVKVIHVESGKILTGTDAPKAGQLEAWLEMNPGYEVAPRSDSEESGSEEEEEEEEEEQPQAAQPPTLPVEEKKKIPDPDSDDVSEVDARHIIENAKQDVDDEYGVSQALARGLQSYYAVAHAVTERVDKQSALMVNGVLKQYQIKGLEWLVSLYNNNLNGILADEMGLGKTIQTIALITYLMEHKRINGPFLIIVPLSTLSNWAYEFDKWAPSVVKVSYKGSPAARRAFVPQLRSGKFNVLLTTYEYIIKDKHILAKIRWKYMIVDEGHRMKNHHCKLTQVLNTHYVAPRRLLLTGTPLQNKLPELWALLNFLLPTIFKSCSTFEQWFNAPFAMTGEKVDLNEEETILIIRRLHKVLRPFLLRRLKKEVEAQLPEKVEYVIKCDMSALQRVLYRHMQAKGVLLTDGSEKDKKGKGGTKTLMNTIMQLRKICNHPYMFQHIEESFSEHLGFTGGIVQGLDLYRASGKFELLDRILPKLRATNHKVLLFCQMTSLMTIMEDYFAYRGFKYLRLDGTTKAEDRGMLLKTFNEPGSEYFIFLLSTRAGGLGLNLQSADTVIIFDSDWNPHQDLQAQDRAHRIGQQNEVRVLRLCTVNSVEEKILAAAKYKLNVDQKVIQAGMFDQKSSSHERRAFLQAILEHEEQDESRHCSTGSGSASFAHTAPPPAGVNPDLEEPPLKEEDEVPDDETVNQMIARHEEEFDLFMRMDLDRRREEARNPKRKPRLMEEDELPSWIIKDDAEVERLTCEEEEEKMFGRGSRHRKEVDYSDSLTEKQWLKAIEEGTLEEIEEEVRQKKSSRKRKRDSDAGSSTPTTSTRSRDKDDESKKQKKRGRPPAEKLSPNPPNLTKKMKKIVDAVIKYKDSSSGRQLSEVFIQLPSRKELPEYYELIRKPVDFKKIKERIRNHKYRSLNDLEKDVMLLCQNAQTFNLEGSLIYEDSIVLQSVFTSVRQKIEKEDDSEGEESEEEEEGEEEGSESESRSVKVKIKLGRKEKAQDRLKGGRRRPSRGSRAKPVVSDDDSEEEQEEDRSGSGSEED

Row | SMILES | IC50 [1] | Emax [1] | BRM Max % Inhibition [2] | IC50 [2] | IC50 ([1]; 30 nM BRG-1, 400 μM ATP) | Emax ([1]; 30 nM BRG-1, 400 μM ATP) | BRM Max % Inhibition ([2]; 30 nM BRM, 400 μM ATP) | IC50 ([2]; 30 nM BRM, 400 μM ATP)
1 | CC(C)S(=O)(=O)c1cccc(C(=O)NCC(=O)Nc2nc(-c3cccc(-c4cc(C#N)cc(C#N)c4)c3)cs2)c1 [Compound 21, N-(2-((4-(3′,5′-dicyano-[1,1′-biphenyl]-3-yl)thiazol-2-yl)amino)-2-oxoethyl)-3-(isopropylsulfonyl)benzamide] | 1 to 5 µM | > 70% | >80% | 0.1 to 1 µM | – | – | – | –
2 | CC(C)S(=O)(=O)c1cc(CO)cc(C(=O)NCC(=O)Nc2nc(-c3cccc(-c4ccncc4)c3)cs2)c1 [Compound 15, 3-(hydroxymethyl)-5-(isopropylsulfonyl)-N-(2-oxo-2-((4-(3-(pyridin-4-yl)phenyl)thiazol-2-yl)amino)ethyl)benzamide] | > 5 µM | > 40% | >50% | 1 to 5 µM | – | – | – | –
3 | Cc1cc(-c2cccc(-c3csc(NC(=O)CNC(=O)c4ccc5c(c4)[C@@](C)(CO)CC5)n3)n2)ncn1 [Compound 204, (3S)-3-(hydroxymethyl)-3-methyl-N-[2-[[4-[6-(6-methylpyrimidin-4-yl)-2-pyridyl]thiazol-2-yl]amino]-2-oxo-ethyl]indane-5-carboxamide] | 0.1 to 1 µM | > 90% | >95% | < 0.1 µM | – | – | – | –
4 | CC(C)S(=O)(=O)c1cccc(C(=O)NCC(=O)Nc2nc(-c3cccc(-c4ccnc(CN)c4)c3)cs2)c1 [Compound 124, N-[2-[[4-[3-[2-(aminomethyl)-4-pyridyl]phenyl]thiazol-2-yl]amino]-2-oxo-ethyl]-3-isopropylsulfonyl-benzamide] | 1 to 5 µM | > 70% | >90% | 0.1 to 1 µM | – | – | – | –
5 | COc1cc(-c2cccc(-c3csc(NC(=O)CNC(=O)c4cccc(S(=O)(=O)C(C)C)c4)n3)c2)ccn1 [Compound 29, 3-(isopropylsulfonyl)-N-(2-((4-(3-(2-methoxypyridin-4-yl)phenyl)thiazol-2-yl)amino)-2-oxoethyl)benzamide] | 0.1 to 1 µM | – | >90% | 0.1 to 1 µM | – | – | – | –
6 | C[C@]1(CO)CCc2c(C(=O)NCC(=O)Nc3nc(-c4cccc(-c5ccncc5)c4)cs3)cccc21 [Compound 226, (S)-1-(hydroxymethyl)-1-methyl-N-(2-oxo-2-((4-(3-(pyridin-4-yl)phenyl)thiazol-2-yl)amino)ethyl)-2,3-dihydro-1H-indene-4-carboxamide] | 1 to 5 µM | > 70% | >95% | 0.1 to 1 µM | – | – | – | –
7 | Cc1cnc(O)c(-c2cccc(-c3csc(NC(=O)CNC(=O)c4ccc5c(c4)[C@@](C)(CO)CC5)n3)n2)c1 [Compound 190, (S)-N-(2-((4-(2′-hydroxy-5′-methyl-[2,3′-bipyridin]-6-yl)thiazol-2-yl)amino)-2-oxoethyl)-3-(hydroxymethyl)-3-methyl-2,3-dihydro-1H-indene-5-carboxamide] | 0.1 to 1 µM | > 70% | >90% | 0.1 to 1 µM | – | – | – | –
8 | CC(C)(/C(N)=N\O)c1cccc(C(=O)NCC(=O)Nc2nc(-c3cccc(-c4ccncc4)c3)cs2)c1 [Compound 83, (E)-3-(1-amino-1-(hydroxyimino)-2-methylpropan-2-yl)-N-(2-oxo-2-((4-(3-(pyridin-4-yl)phenyl)thiazol-2-yl)amino)ethyl)benzamide] | > 5 µM | > 50% | >90% | 1 to 5 µM | – | – | – | –
9 | Cn1ccc(-c2cccc(-c3csc(NC(=O)CNC(=O)c4ccc5c(c4)[C@@](C)(CO)CC5)n3)n2)n1 [Compound 192, (3S)-3-(hydroxymethyl)-3-methyl-N-[2-[[4-[6-(1-methylpyrazol-3-yl)-2-pyridyl]thiazol-2-yl]amino]-2-oxo-ethyl]indane-5-carboxamide] | 1 to 5 µM | > 60% | >90% | 0.1 to 1 µM | – | – | – | –
10 | Cn1ccc2ccc(-c3csc(NC(=O)CNC(=O)c4cccc(C5(C#N)CCC5)c4)n3)cc2c1=O [Compound 147, 3-(1-cyanocyclobutyl)-N-(2-((4-(2-methyl-1-oxo-1,2-dihydroisoquinolin-7-yl)thiazol-2-yl)amino)-2-oxoethyl)benzamide] | 1 to 5 µM | > 80% | >90% | 0.1 to 1 µM | – | – | – | –
11 | C[C@@H]1CN(c2cccc(-c3csc(NC(=O)CNC(=O)c4ccc5c(c4)[C@@](C)(CO)CC5)n3)c2)C[C@H](C)O1 [Compound 219, (S)-N-(2-((4-(3-((cis)-2,6-dimethylmorpholino)phenyl)thiazol-2-yl)amino)-2-oxoethyl)-3-(hydroxymethyl)-3-methyl-2,3-dihydro-1H-indene-5-carboxamide] | 0.1 to 1 µM | > 90% | >95% | < 0.1 µM | – | – | – | –
12 | C[C@@H]1CN(c2cccc(-c3csc(NC(=O)CNC(=O)c4cc(C(C)(C)C)ccn4)n3)c2)C[C@H](C)O1 [Compound 202, 4-tert-butyl-N-[2-[[4-[3-[(cis)-2,6-dimethylmorpholin-4-yl]phenyl]thiazol-2-yl]amino]-2-oxo-ethyl]pyridine-2-carboxamide] | 1 to 5 µM | > 80% | >90% | 0.1 to 1 µM | – | – | – | –
13 | C[C@@H]1CN(c2cccc(-c3csc(NC(=O)CNC(=O)c4ccc5c(c4)[C@@](C)(C#N)COC5)n3)c2)C[C@H](C)O1 [Compound 171, (S)-4-cyano-N-(2-((4-(3-((cis)-2,6-dimethylmorpholino)phenyl)thiazol-2-yl)amino)-2-oxoethyl)-4-methylisochroman-6-carboxamide] | 1 to 5 µM | > 70% | >80% | 0.1 to 1 µM | – | – | – | –

Other lines, results leading:

Row | IC50 [1] | Emax [1] | BRM Max % Inhibition [2] | IC50 [2] | IC50 ([1]; 30 nM BRG-1, 400 μM ATP) | Emax ([1]; 30 nM BRG-1, 400 μM ATP) | BRM Max % Inhibition ([2]; 30 nM BRM, 400 μM ATP) | IC50 ([2]; 30 nM BRM, 400 μM ATP) | SMILES
14 | 0.1 to 1 µM | > 95% | >95% | < 0.1 µM | – | – | – | – | COc1cc(-c2csc(NC(=O)CNC(=O)c3ccc4c(c3)[C@](C)(C#N)COC4)n2)ccc1F [Compound 399, (R)-4-cyano-N-(2-((4-(4-fluoro-3-methoxyphenyl)thiazol-2-yl)amino)-2-oxoethyl)-4-methylisochromane-6-carboxamide]
15 | – | – | – | – | 0.1 to 1 µM | > 95% | >95% | 0.1 to 1 µM | C[C@H](NC(=O)c1ccc2c(c1)C(C)(CO)CC2)C(=O)Nc1nc(-c2cccc(N3CCC3)c2)cs1 (stereo in doubt) [Compound 414, (S)-N-((S)-1-((4-(3-(azetidin-1-yl)phenyl)thiazol-2-yl)amino)-1-oxopropan-2-yl)-3-(hydroxymethyl)-3-methyl-2,3-dihydro-1H-indene-5-carboxamide]
16 | > 5 µM | > 90% | >90% | 0.1 to 1 µM | – | – | – | – | C[C@@H]1CN(c2cccc(-c3csc(NC(=O)CNC(=O)c4ccc5c(c4)[C@]4(COC5)CC4(F)F)n3)n2)C[C@H](C)O1 [Compound 411, (S)-N-(2-((4-(6-((cis)-2,6-dimethylmorpholino)pyridin-2-yl)thiazol-2-yl)amino)-2-oxoethyl)-2,2-difluorospiro[cyclopropane-1,4′-isochromane]-6′-carboxamide]
17 | 0.1 to 1 µM | > 95% | >95% | < 0.1 µM | – | – | – | – | C[C@@]1(C#N)COCc2ccc(C(=O)NCC(=O)Nc3nc(-c4cccc(N5CCC56COC6)c4)cs3)cc21 [Compound 328, (R)-N-(2-((4-(3-(6-oxa-1-azaspiro[3.3]heptan-1-yl)phenyl)thiazol-2-yl)amino)-2-oxoethyl)-4-cyano-4-methylisochromane-6-carboxamide]
18 | – | – | – | – | 1 to 5 µM | > 95% | >95% | 0.1 to 1 µM | C[C@@H]1CN(c2cccc(-c3csc(NC(=O)[C@H](C)NC(=O)c4ccnc(C(C)(C)C)c4)n3)c2)C[C@H](C)O1 [Compound 435, 2-(tert-butyl)-N-((S)-1-((4-(3-((cis)-2,6-dimethylmorpholino)phenyl)thiazol-2-yl)amino)-1-oxopropan-2-yl)isonicotinamide]
19 | 1 to 5 µM | > 95% | >95% | < 0.1 µM | – | – | – | – | C[C@@H]1CN(c2cccc(-c3csc(NC(=O)CNC(=O)c4cccc([C@]5(F)C[C@@](C)(O)C5)c4)n3)c2)C[C@H](C)O1 [Compound 317, N-(2-((4-(3-((cis)-2,6-dimethylmorpholino)phenyl)thiazol-2-yl)amino)-2-oxoethyl)-3-((1s,3s)-1-fluoro-3-hydroxy-3-methylcyclobutyl)benzamide]
20 | 1 to 5 µM | > 85% | >85% | 0.1 to 1 µM | – | – | – | – | COc1cccc(-c2csc(NC(=O)C3(NC(=O)c4ccc5c(c4)[C@](C)(C#N)COC5)CC3(F)F)n2)c1 (stereo partly drawn) [Compound 336, (R)-4-cyano-N-(2,2-difluoro-1-((4-(3-methoxyphenyl)thiazol-2-yl)carbamoyl)cyclopropyl)-4-methylisochromane-6-carboxamide]
21 | 1 to 5 µM | > 50% | >80% | 0.1 to 1 µM | – | – | – | – | Cc1nccc(-c2cccc(-c3csc(NC(=O)CNC(=O)c4ccc5c(c4)[C@@](C)(C#N)CC5)n3)n2)n1 [Compound 268, (3S)-3-cyano-3-methyl-N-[2-[[4-[6-(2-methylpyrimidin-4-yl)-2-pyridyl]thiazol-2-yl]amino]-2-oxo-ethyl]indane-5-carboxamide]
22 | 0.1 to 1 µM | > 95% | >95% | < 0.1 µM | – | – | – | – | C[C@@]1(F)COCc2ccc(C(=O)NCC(=O)Nc3nc(-c4cccc(C(F)F)n4)cs3)cc21 [Compound 331, (S)-N-(2-((4-(6-(difluoromethyl)pyridin-2-yl)thiazol-2-yl)amino)-2-oxoethyl)-4-fluoro-4-methylisochromane-6-carboxamide]
